Series [1] is described as follows: Inhibition of Oryza sativa (rice) PDHc by spectrophotometric assay.
The subject of series [2] is Brassica rapa subsp. oleifera. Description: Herbicidal activity against Brassica rapa subsp. oleifera assessed as inhibition of rape root growth. In kind it is functional, organism-based.
For the next series, the system named is Pisum sativum. The experiment in a line: Herbicidal activity against 2 to 3 leaf stage Pisum sativum assessed as inhibition of plant growth at 450 g/ha in greenhouse by postemergence herbicidal activity assay. The series is classed as functional. The following applies: Lathyrus oleraceus, post-emergence; read-out: GI.
A further series has as its system Echinochloa crus-galli. The experiment in a line: Herbicidal activity against 2 to 3 leaf stage Echinochloa crus-galli (barnyard grass) assessed as inhibition of plant growth at 450 g/ha in greenhouse by postemergence herbicidal activity assay. The series is classed as functional. The following applies: Echinochloa crus-galli, post-emergence; read-out: GI.
Series [3] has as its system Brassica rapa subsp. oleifera. The experiment in a line: Herbicidal activity against Brassica rapa subsp. oleifera assessed as inhibition of rape root growth at 450 g/ha by pre-emergence herbicidal activity assay. The series is classed as functional. The following applies: read-out: GI.
The subject of a further series is Oryza sativa. The experiment in a line: Herbicidal activity against two to three-leaf stage Oryza sativa (rice) assessed as inhibition of plant growth at 450 g/ha in greenhouse by postemergence herbicidal activity assay. In kind it is organism-based. The following applies: in vivo, other.
Series [4] relates to Brassica rapa subsp. oleifera. The experiment in a line: Herbicidal activity against Brassica rapa subsp. oleifera assessed as inhibition of rape root growth at 450 g/ha by postemergence herbicidal activity assay. The following applies: post-emergence, read-out: GI. The series is classed as functional.
For series [5], the target named is T1, Pyruvate dehydrogenase complex (Pisum sativum, UniProt P52902+P52904).
T1 sequence (P52902 whole entry): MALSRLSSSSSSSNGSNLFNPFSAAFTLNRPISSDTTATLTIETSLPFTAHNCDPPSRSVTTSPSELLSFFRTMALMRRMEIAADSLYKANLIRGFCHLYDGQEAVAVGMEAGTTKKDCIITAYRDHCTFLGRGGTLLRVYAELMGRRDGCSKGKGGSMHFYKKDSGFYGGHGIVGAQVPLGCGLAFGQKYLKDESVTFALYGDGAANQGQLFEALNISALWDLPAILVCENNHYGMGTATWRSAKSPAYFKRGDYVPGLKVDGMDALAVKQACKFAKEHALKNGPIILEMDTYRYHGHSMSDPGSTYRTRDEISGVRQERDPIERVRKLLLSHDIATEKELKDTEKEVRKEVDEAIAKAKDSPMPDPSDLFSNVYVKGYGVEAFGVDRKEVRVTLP
T1 sequence (P52904 whole entry): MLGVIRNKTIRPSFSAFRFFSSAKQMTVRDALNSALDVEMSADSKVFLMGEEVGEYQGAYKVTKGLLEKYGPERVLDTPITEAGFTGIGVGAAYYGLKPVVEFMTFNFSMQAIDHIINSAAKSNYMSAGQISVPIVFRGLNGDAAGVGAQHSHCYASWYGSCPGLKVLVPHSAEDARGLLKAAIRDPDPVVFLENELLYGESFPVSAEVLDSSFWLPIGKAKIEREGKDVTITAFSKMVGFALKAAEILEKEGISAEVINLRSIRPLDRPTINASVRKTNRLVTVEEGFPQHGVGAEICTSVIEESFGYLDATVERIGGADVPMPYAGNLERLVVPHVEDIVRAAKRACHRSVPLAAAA
The experiment in a line: Inhibition of Pisum sativum (pea) PDHc by spectrophotometric assay. In kind it is protein-complex assay, Lathyrus oleraceus.

In the next series the test system is Amaranthus retroflexus. Description: Herbicidal activity against 2 to 3 leaf stage Amaranthus retroflexus assessed as inhibition of plant growth at 450 g/ha in greenhouse by postemergence herbicidal activity assay. The series is classed as functional. The following applies: post-emergence, read-out: GI.
A further series concerns Brassica juncea. The experiment in a line: Herbicidal activity against two to three-leaf stage Brassica juncea assessed as inhibition of plant growth at 450 g/ha in greenhouse by post-emergence herbicidal activity assay. The series is classed as functional. The following applies: read-out: GI.

Data on 1 compound can be found in ChEMBL document CHEMBL3044788, “α-(Substituted-phenoxyacetoxy)-α-heterocyclylmethylphosphonates: synthesis, herbicidal activity, inhibition on pyruvate dehydrogenase complex (PDHc), and application as postemergent herbicide against broadleaf weeds” (J Agric Food Chem, 2013).

Molecules are shown by their SMILES. pIC50: −log10 of the molar value.

In the case of `COP(=O)([O-])C(OC(=O)COc1ccc(Cl)cc1Cl)c1ccco1.[Na+]` (stereo not given), the pIC50 (as a rule, the negative decadic logarithm of the IC50, by convention in mol/L) in series [1] was 4.39; in series [2], 7.40; in [5], 5.16. Also, the inhibition of growth at 450 g/ha with Pisum sativum is 98%; in the series on Echinochloa crus-galli it was 50%; in [3] it was 96%; in series [4], 95%; in the series with Amaranthus retroflexus, 100%; in the series on Brassica juncea, 92.5%. The “growth inhibition (GI)” value in the series on Oryza sativa is 45%.
